Assay [1] has as its target T1, rat recombinant kappa-opioid (KOP) receptor (Rattus norvegicus, UniProt P34975).
T1 construct: purchased CEREP, Redmond, WA (ExpresSProfile screen)
Nature of the assay: kappa-opioid (KOP) receptor binding assay. The source says:
[…]. […] […]. […] […].

For assay [2], the system named is PABP1 and SmB methylation in U266B1 cells. Put plainly: Western blot of cellular methyl marks, U266B1. As to conditions: 96 h.
Method: Methylation changes were measured at the well-characterized CARM1 substrates PABP1 and SmB[1],[10]. Changes in overall levels of asymmetric dimethyl arginine (aDMA) were assessed with an antibody that detects a generic aDMA motif. Levels of methylated analytes were quantified by densitometry and ratios of methylated to total protein were calculated to determine the cell biochemical IC50 values.
Cultured cells in linear/log phase growth were split to a seeding density of 2e5 cells/mL in 2–20mLs of media, depending on the yield required at the end of the growth period. Compound was diluted in DMSO and added to each culture vessel with a final DMSO concentration of 0.2%. Cells were allowed to grow for 96 hours. At the conclusion of each treatment period, cells were harvested by centrifugation (5 minutes, 1200 rpm), and cell pellets were rinsed once with PBS before being frozen on dry ice pending further processing.
Quantification of Western blots was performed using infra-red emitting secondary antibodies and detection with an ODYSSEY infrared imaging system.
For a further assay, the system named is SH-2. Put plainly: Six-day cell proliferation assay (CellTiter-Glo). Particulars: 144 h; SH-2 (AML), 6 days; read-out: Average day 6 gIC50. The class given is cell-based. The procedure: (§1) Six-day cell proliferation assay
(§2) Optimal cell seeding density was determined empirically for each cell lines by examining the gro wth of a wide ran ge o f seedin g densities in a 3 84-well formatto identify conditio ns that permitted maximal and continued proliferation for 6 days. Cells were plat ed in duplicate plates 24 hours before treatment with a 20- point two-fold dilution series of compound or 0.15%
(§3) DMSO. Plates were incubated for 6 da ys at 37°C in 5% CO2. Cells were th en l ysed with CellTiter-Glo (CTG) (Pr omega) and chemiluminescent sign al was detected with an appropriat e microplate reader. In addition, an untreated plate of cells was harvested at the time of compound addition (T0) to quantif y the initial cell densit y. CTG values obtained after 6 days of treatment were expressed as a percent of the T0 value and plotted against compound concentration. […]
(§4) Supplementary Table S 3. […] A p anel […]
(§5) of cell lines was treated with EZM2302fo r 6da ys in a proliferation ass a y. Cell densit y (as assessed b y CellTiter-Gl o) at da y 0 was compared to day 6 to det ermine growth IC 50 values , calculated us i n g a f our parameter dose response equation.
(§6) Cell Type According to Cell Type Category Cell L ine Name gIC50 Average day 6 Standard Replicates

In another assay the test system is SHI-1. Nature of the assay: Six-day cell proliferation assay (CellTiter-Glo). Type of assay: cell-based. As to conditions: 144 h; SHI-1 (AML), 6 days; read-out: Average day 6 gIC50. How it is done: as §1, §2, §3, §4, §5, §6
Another assay concerns the target hERG channel (Homo sapiens, UniProt Q12809). Put plainly: hERG channel current inhibition. Type of assay: biochemical. Particulars: read-out: IC50 against hERG channel current inhibition.

The structures appear in SMILES notation. Like-named read-outs stand apart in the source and are kept apart here.

T1 sequence (P34975 whole entry): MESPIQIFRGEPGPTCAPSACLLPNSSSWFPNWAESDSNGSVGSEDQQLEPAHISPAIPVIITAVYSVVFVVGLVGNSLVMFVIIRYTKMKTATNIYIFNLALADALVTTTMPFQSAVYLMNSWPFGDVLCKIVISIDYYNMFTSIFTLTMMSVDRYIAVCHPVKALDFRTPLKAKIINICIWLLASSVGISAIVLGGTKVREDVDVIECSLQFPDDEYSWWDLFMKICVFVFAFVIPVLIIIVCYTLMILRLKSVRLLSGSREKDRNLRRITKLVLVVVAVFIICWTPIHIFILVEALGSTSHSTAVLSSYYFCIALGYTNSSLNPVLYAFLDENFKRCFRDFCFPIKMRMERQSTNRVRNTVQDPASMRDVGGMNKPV
Chain of hERG channel (Q12809 whole entry): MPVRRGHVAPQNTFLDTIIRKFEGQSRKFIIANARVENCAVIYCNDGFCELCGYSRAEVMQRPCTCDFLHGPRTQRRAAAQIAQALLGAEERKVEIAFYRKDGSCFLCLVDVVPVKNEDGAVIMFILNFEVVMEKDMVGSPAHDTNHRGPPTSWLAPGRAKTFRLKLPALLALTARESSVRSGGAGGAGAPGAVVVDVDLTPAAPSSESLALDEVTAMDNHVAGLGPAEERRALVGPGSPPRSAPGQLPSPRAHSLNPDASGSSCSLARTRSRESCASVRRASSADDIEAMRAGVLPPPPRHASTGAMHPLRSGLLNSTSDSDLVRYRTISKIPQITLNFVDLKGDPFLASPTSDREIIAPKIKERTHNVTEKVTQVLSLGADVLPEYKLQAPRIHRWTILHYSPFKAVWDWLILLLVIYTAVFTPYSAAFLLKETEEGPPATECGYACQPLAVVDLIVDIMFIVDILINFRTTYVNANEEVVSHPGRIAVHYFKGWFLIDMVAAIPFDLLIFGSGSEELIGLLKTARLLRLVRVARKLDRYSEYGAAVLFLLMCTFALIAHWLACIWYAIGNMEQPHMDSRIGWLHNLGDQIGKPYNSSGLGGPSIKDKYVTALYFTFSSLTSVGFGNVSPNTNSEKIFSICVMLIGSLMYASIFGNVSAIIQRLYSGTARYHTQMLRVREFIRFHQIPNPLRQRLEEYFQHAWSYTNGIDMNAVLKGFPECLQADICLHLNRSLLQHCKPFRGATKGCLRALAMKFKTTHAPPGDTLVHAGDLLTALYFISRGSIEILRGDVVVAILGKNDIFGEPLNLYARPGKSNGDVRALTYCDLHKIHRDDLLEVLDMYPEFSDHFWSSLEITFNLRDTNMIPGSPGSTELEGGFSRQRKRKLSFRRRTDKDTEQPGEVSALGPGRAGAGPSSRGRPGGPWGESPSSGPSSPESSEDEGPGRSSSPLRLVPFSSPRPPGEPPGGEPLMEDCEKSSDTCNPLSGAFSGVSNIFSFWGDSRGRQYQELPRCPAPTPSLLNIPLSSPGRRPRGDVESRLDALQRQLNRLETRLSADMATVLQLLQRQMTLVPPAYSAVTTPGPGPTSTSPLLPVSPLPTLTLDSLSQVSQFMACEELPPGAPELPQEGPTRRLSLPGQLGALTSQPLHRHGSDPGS

For `CNC[C@@H](O)COc1ccc(Cl)c(-c2nc(-c3c(C)noc3C)c(C)c(N3CC4(CCN(C(=O)OC)CC4)C3)n2)c1` [EZM2302], the IC50 was 3.3 µM in assay [1]; 0.022 µM in assay [2] (read-out: IC50, PABP1me2a); 0.02 µM in assay [2] (read-out: IC50, SmBme0); > 36.7 µM with SH-2; > 36 µM in the assay with SHI-1; > 100 µM on hERG channel. Further, in assay [1] (10 μM), the inhibition at 10 µM is 69%.

The values are drawn from paper PMC5740082, “Identification of a CARM1 Inhibitor with Potent In Vitro and In Vivo Activity in Preclinical Models of Multiple Myeloma” (Scientific Reports, 2017).
